Consider 1 compound from patent US11369654B2, “Application method of Dendrobium candidum in preparing medicine for treating hypertension” (Hangzhou Danhe Pharmaceutical CO., Ltd., priority 2017, dated 2022).

The test system of assay [1] is Spontaneously Hypertensive Rats (SHR). Description: Experiment 1: antihypertensive effect of Dendrobium officinale extraction methods, tail artery blood pressure. It is filed as in vivo, rat. The method, then:
Rats: Spontaneously Hypertensive Rats (SHR), Wistar rats are used as normal controls.
(§1) Rat Blood Pressure Measurement: BP-98A Non-invasive Tail Artery Blood Pressure Meter, Japan Soft Rotation Co., Ltd.
Group therapy is described in the following description. Blood pressure and body weight are measured and grouped after one week of adaptive feeding in all rats. The SHR rats are divided into the water extracting group after crushing and flattening, the water extracting group after crushing, and the water extracting group after grinding into powder, all Chinese medicine groups are given 0.8 g/kg body weight of crude drug, and the amlodipine besylate tablets 0.5 mg/kg body weight are given intragastrically in amlodipine group, the hypertensive model control group is given with the same amount of saline, while the normal control group is given with the same amount of saline. Eight rats in each group were treated for 2 weeks. Blood pressure measurement: The rats are preheated at 38° C. for 5-10 minutes to avoid blood flow in the tail of the rat. The blood pressure of the rats is measured three times in a waking and quiet state, and the average value of the three measurement times is used as the blood pressure of the rats. Blood pressure is measured once a week and once 2 hours after administration.

Assay [2] shares this test system. The experiment in a line: Experiment 4: antihypertensive effect of the sample of Example 1 on SHR. Format: in vivo, rat. The method, then: Rats: Spontaneously Hypertensive Rats (SHR), Wistar rats were used as normal controls.
as §1
Group therapy is described in the following description. Blood pressure and body weight are measured and grouped after one week of adaptive feeding in all rats. […] Eight rats in each group are treated for 2 weeks.
The following description describes the blood pressure measurement. The rats are preheated at 38° C. for 5-10 minutes to avoid blood flow in the tail of the rat. The blood pressure of the rats is measured three times in a waking and quiet state, and the average value of three times is used as the blood pressure of the rats. Blood pressure is measured twice a week, once 2 hours after administration and once 24 hours after administration, to observe the immediate antihypertensive effect and after 24 hours antihypertensive effect (and the peak-to-valley ratio).
The following description discusses the trough-peak ratio calculation of depressurization amplitude. The difference of blood pressure before treatment minus 24 hours after administration is the trough of the range of blood pressure reduction, which is the lowest point before the next administration; the difference of blood pressure before treatment and 2 hours after administration is the peak value of blood pressure reduction, that is, the maximum point of blood pressure reduction after administration. Valley value of depressurization amplitude divided by peak value of depressurization amplitude is equal to valley-peak ratio of depressurization amplitude.

Where [3] appears, read: 2 h after administration, treatment for 1 week, 0.8 g/kg crude drug, amlodipine 0.5 mg/kg.
The mark [4] stands for this setting: 2 h after administration, treatment for 2 weeks, 0.8 g/kg crude drug, amlodipine 0.5 mg/kg.
Setting [5] is: 2 h after administration, treatment for 2 weeks, 0.8 g/kg crude drug, amlodipine 0.5 mg/kg, listed as amlodipine.
[6] abbreviates: 2 h after administration, treatment for 1 week, medium dose 0.8 g/kg crude drug, amlodipine 0.5 mg/kg.
[7] abbreviates: 2 h after administration, treatment for 2 weeks, medium dose 0.8 g/kg crude drug, amlodipine 0.5 mg/kg.
The mark [8] stands for this setting: 24 h after administration, treatment for 1 week, medium dose 0.8 g/kg crude drug, amlodipine 0.5 mg/kg.
[9] abbreviates: 24 h after administration, treatment for 2 weeks, medium dose 0.8 g/kg crude drug, amlodipine 0.5 mg/kg.
Setting [10] is: before treatment, medium dose group 0.8 g/kg crude drug, amlodipine group 0.5 mg/kg.
[11] abbreviates: treatment for 1 week, medium dose 0.8 g/kg crude drug, amlodipine 0.5 mg/kg.
The mark [12] stands for this setting: treatment for 2 weeks, medium dose 0.8 g/kg crude drug, amlodipine 0.5 mg/kg.

Values joined by “and” are separate entries in the source; they are usually repeats but may differ in a detail not shown here. Equal entries are not always repeated.

With `CCOC(=O)C1=C(COCCN)NC(C)=C(C(=O)OC)C1c1ccccc1Cl` (stereo not drawn) [Amlodipine, amlodipine besylate], the diastolic blood pressure in assay [1] (setting [3]) is listed as 142.6 ± 5.78 mmHg; in assay [1] (setting [4]), 143.7 ± 4.28 mmHg; in assay [1] (setting [5]) it was 143.7±4.28 mmHg; in assay [1] (before treatment), 157.4 ± 5.67 mmHg; in assay [2] (setting [6]), 145.9 mmHg; in assay [2] (setting [7]), 144.8 mmHg. Moreover, the diastolic blood pressure in assay [2] (setting [8]) amounted to 156.5 mmHg; in assay [2] (setting [9]) it was 157.3 mmHg; in assay [2] (setting [10]) it was 158.2 mmHg. The systolic blood pressure in assay [1] (setting [3]) stood at 173.8 ± 5.26 mmHg; in assay [1] (setting [4]) it was 175.5 ± 4.48 mmHg; in assay [1] (setting [5]), 175.5±4.48 mmHg; in assay [1] (before treatment) it was 206.3 ± 6.26 mmHg; in assay [2] (setting [6]) it was 176.7 ± 7.42 mmHg; in assay [2] (setting [7]), 178.7 ± 5.64 mmHg. Further, the systolic blood pressure was 202.6 mmHg in assay [2] (setting [8]); 204.9 mmHg in assay [2] (setting [9]); 211.7 ± 7.57 mmHg and 211.7 mmHg and 211.7 ± 17.57 mmHg in assay [2] (setting [10]). In addition, the “2-hour hypotensive amplitude (peak of systolic blood pressure reduction)” value in assay [2] (setting [11]) was 35.0 mmHg; in assay [2] (setting [12]) it was 33.0 mmHg. Further, the “24-hour hypotensive amplitude (trough of systolic blood pressure reduction)” value in assay [2] (setting [11]) came to 9.1 mmHg; in assay [2] (setting [12]) it was 6.8 mmHg. In addition, the “valley-peak ratio of Systolic Blood Pressure Reduction” value is 0.26 in assay [2] (setting [11]) and 0.21 in assay [2] (setting [12]).
